The source made the active and inactive calls. The rule behind the calls is not given here.
Legend:
[1] = system: Triticum aestivum; test: Stimulation of germination of Triticum aestivum (wheat) at 0.1 mM after 5 days relative to untreated control; assay type: functional
[2] = system: Allium cepa; test: Stimulation of germination of Allium cepa (onion) at 0.1 mM after 5 days relative to untreated control; assay type: functional
[3] = system: Triticum aestivum; test: Inhibition of shoot length of Triticum aestivum (wheat) at 0.1 mM after 5 days relative to untreated control; assay type: functional; settings: 120 h
[4] = system: Hordeum vulgare; test: Inhibition of germination of Hordeum vulgare (barley) at 0.1 mM after 5 days relative to untreated control; assay type: functional; settings: 120 h
[5] = system: Lactuca sativa; test: Inhibition of shoot length of Lactuca sativa cv. Roman (lettuce) at 0.1 mM after 5 days relative to untreated control; assay type: functional; settings: 120 h
[6] = system: Triticum aestivum; test: Stimulation of shoot length of Triticum aestivum (wheat) at 0.1 mM after 5 days relative to untreated control; assay type: functional
[7] = system: Lactuca sativa; test: Stimulation of shoot length of Lactuca sativa cv. Nigra (lettuce) at 0.1 mM after 5 days relative to untreated control; assay type: functional
[8] = system: Lactuca sativa; test: Stimulation of shoot length of Lactuca sativa cv. Roman (lettuce) at 0.1 mM after 5 days relative to untreated control; assay type: functional
[9] = system: Lactuca sativa; test: Stimulation of root length of Lactuca sativa cv. Roman (lettuce) at 0.1 mM after 5 days relative to untreated control; assay type: functional
[10] = system: Triticum aestivum; test: Inhibition of germination of Triticum aestivum (wheat) at 0.1 mM after 5 days relative to untreated control; assay type: functional; settings: 120 h
[11] = system: Hordeum vulgare; test: Inhibition of shoot length of Hordeum vulgare (barley) at 0.1 mM after 5 days relative to untreated control; assay type: functional; settings: 120 h
[12] = system: Lepidium sativum; test: Inhibition of germination of Lepidium sativum at 0.1 mM after 5 days relative to untreated control; assay type: functional; settings: 120 h
[13] = system: Solanum lycopersicum; test: Inhibition of root length of Solanum lycopersicum (tomato) at 0.1 mM after 5 days relative to untreated control; assay type: functional; settings: 120 h
[14] = system: Lepidium sativum; test: Inhibition of shoot length of Lepidium sativum at 0.1 mM after 5 days relative to untreated control; assay type: functional; settings: 120 h
[15] = system: Lactuca sativa; test: Inhibition of root length of Lactuca sativa cv. Roman (lettuce) at 0.1 mM after 5 days relative to untreated control; assay type: functional; settings: 120 h
[16] = system: Solanum lycopersicum; test: Stimulation of germination of Solanum lycopersicum (tomato) at 0.1 mM after 5 days relative to untreated control; assay type: functional
[17] = system: Triticum aestivum; test: Stimulation of root length of Triticum aestivum (wheat) at 0.1 mM after 5 days relative to untreated control; assay type: functional
[18] = system: Hordeum vulgare; test: Stimulation of root length of Hordeum vulgare (barley) at 0.1 mM after 5 days relative to untreated control; assay type: functional
[19] = system: Solanum lycopersicum; test: Inhibition of shoot length of Solanum lycopersicum (tomato) at 0.1 mM after 5 days relative to untreated control; assay type: functional; settings: 120 h
[20] = system: Allium cepa; test: Stimulation of shoot length of Allium cepa (onion) at 0.1 mM after 5 days relative to untreated control; assay type: functional
[21] = system: Solanum lycopersicum; test: Inhibition of germination of Solanum lycopersicum (tomato) at 10 uM after 5 days relative to untreated control; assay type: functional, organism-based
[22] = system: Allium cepa; test: Inhibition of shoot length of Allium cepa (onion) at 0.1 mM after 5 days relative to untreated control; assay type: functional; settings: 120 h
[23] = system: Lactuca sativa; test: Stimulation of root length of Lactuca sativa cv. Nigra (lettuce) at 0.1 mM after 5 days relative to untreated control; assay type: functional
[24] = system: Allium cepa; test: Inhibition of root length of Allium cepa (onion) at 0.1 mM after 5 days relative to untreated control; assay type: functional; settings: 120 h
[25] = system: Lepidium sativum; test: Stimulation of root length of Lepidium sativum at 0.1 mM after 5 days relative to untreated control; assay type: functional
[26] = system: Lactuca sativa; test: Stimulation of germination of Lactuca sativa cv. Nigra (lettuce) at 0.1 mM after 5 days relative to untreated control; assay type: functional
[27] = system: Lepidium sativum; test: Stimulation of shoot length of Lepidium sativum at 0.1 mM after 5 days relative to untreated control; assay type: functional
[28] = system: Lepidium sativum; test: Inhibition of root length of Lepidium sativum at 10 uM after 5 days relative to untreated control; assay type: functional, organism-based
[29] = system: Solanum lycopersicum; test: Inhibition of germination of Solanum lycopersicum (tomato) at 0.1 mM after 5 days relative to untreated control; assay type: functional; settings: 120 h
[30] = system: Solanum lycopersicum; test: Stimulation of shoot length of Solanum lycopersicum (tomato) at 0.1 mM after 5 days relative to untreated control; assay type: functional
[31] = system: Allium cepa; test: Stimulation of root length of Allium cepa (onion) at 0.1 mM after 5 days relative to untreated control; assay type: functional
[32] = system: Hordeum vulgare; test: Stimulation of germination of Hordeum vulgare (barley) at 0.1 mM after 5 days relative to untreated control; assay type: functional
[33] = system: Allium cepa; test: Inhibition of germination of Allium cepa (onion) at 0.1 mM after 5 days relative to untreated control; assay type: functional; settings: 120 h
[34] = system: Solanum lycopersicum; test: Stimulation of root length of Solanum lycopersicum (tomato) at 0.1 mM after 5 days relative to untreated control; assay type: functional
[35] = system: Lactuca sativa; test: Inhibition of shoot length of Lactuca sativa cv. Nigra (lettuce) at 0.1 mM after 5 days relative to untreated control; assay type: functional; settings: 120 h
[36] = system: Triticum aestivum; test: Inhibition of root length of Triticum aestivum (wheat) at 0.1 mM after 5 days relative to untreated control; assay type: functional; settings: 120 h
[37] = system: Hordeum vulgare; test: Inhibition of root length of Hordeum vulgare (barley) at 0.1 mM after 5 days relative to untreated control; assay type: functional; settings: 120 h
[38] = system: Solanum lycopersicum; test: Inhibition of root length of Solanum lycopersicum (tomato) at 10 uM after 5 days relative to untreated control; assay type: functional, organism-based
[39] = system: Lactuca sativa; test: Inhibition of root length of Lactuca sativa cv. Nigra (lettuce) at 0.1 mM after 5 days relative to untreated control; assay type: functional; settings: 120 h
[40] = system: Lactuca sativa; test: Inhibition of germination of Lactuca sativa cv. Nigra (lettuce) at 0.1 mM after 5 days relative to untreated control; assay type: functional; settings: 120 h
[41] = system: Lepidium sativum; test: Inhibition of root length of Lepidium sativum at 0.1 mM after 5 days relative to untreated control; assay type: functional; settings: 120 h
[42] = system: Solanum lycopersicum; test: Inhibition of shoot length of Solanum lycopersicum (tomato) at 10 uM after 5 days relative to untreated control; assay type: functional, organism-based
[43] = system: Lepidium sativum; test: Inhibition of shoot length of Lepidium sativum at 10 uM after 5 days relative to untreated control; assay type: functional, organism-based
[44] = system: Lepidium sativum; test: Inhibition of germination of Lepidium sativum at 10 uM after 5 days relative to untreated control; assay type: functional, organism-based
[45] = system: Lepidium sativum; test: Stimulation of germination of Lepidium sativum at 0.1 mM after 5 days relative to untreated control; assay type: functional
[46] = system: Lactuca sativa; test: Stimulation of germination of Lactuca sativa cv. Roman (lettuce) at 0.1 mM after 5 days relative to untreated control; assay type: functional
[47] = system: Hordeum vulgare; test: Stimulation of shoot length of Hordeum vulgare (barley) at 0.1 mM after 5 days relative to untreated control; assay type: functional
[48] = system: Lactuca sativa; test: Inhibition of germination of Lactuca sativa cv. Roman (lettuce) at 0.1 mM after 5 days relative to untreated control; assay type: functional; settings: 120 h

## CO[C@H]1OC(=O)C=C2C1=C[C@H]1OC(=O)[C@@]3(C)CCC[C@@]2(C)[C@@H]13
[1]
  Activity: >40%
[2]
  Activity: >40%
[3]
  inhibition at 100 µM: > 40%
[4]
  inhibition at 100 µM: > 40%
[5]
  inhibition at 100 µM: > 40%
[6]
  Activity: >40%
[7]
  Activity: >40%
[8]
  Activity: >40%
[9]
  Activity: >40%
[10]
  inhibition at 100 µM: > 40%
[11]
  inhibition at 100 µM: > 40%
[12]
  inhibition at 100 µM: 20%
[13]
  inhibition at 100 µM: > 40%
[14]
  inhibition at 100 µM: > 40%
[15]
  inhibition at 100 µM: > 40%
[16]
  Activity: >40%
[17]
  Activity: >40%
[18]
  Activity: >40%
[19]
  inhibition at 100 µM: > 40%
[20]
  Activity: >40%
[21]
  inhibition: Active
[22]
  inhibition at 100 µM: > 40%
[23]
  Activity: >40%
[24]
  inhibition at 100 µM: > 40%
[25]
  Activity: >40%
[26]
  Activity: >40%
[27]
  Activity: >40%
[28]
  inhibition: Active
[29]
  inhibition at 100 µM: > 40%
[30]
  Activity: >40%
[31]
  Activity: >40%
[32]
  Activity: >40%
[33]
  inhibition at 100 µM: > 40%
[34]
  Activity: >40%
[35]
  inhibition at 100 µM: > 40%
[36]
  inhibition at 100 µM: > 40%
[37]
  inhibition at 100 µM: > 40%
[38]
  inhibition: Active
[39]
  inhibition at 100 µM: > 40%
[40]
  inhibition at 100 µM: > 40%
[41]
  inhibition at 100 µM: > 40%
[42]
  inhibition: Active
[43]
  inhibition: Active
[44]
  inhibition: Active
[45]
  Activity: 20%
[46]
  Activity: >40%
[47]
  Activity: >40%
[48]
  inhibition at 100 µM: > 40%

Source: ChEMBL document CHEMBL3046208, “Natural and synthetic podolactones with potential use as natural herbicide models” (2000)
